This note sets out measurements from US10385070B2, “Chroman-spirocyclic piperidine amides as modulators of ion channels” (VERTEX PHARMACEUTICALS INCORPORATED, priority 2011, dated 2019).

This experiment deals with human NaV subtype, like NaV 1.7 (Homo sapiens, UniProt Q15858). The experiment is described as follows: E-VIPR optical membrane potential assay with electrical stimulation. Type of experiment: cell-based. As to conditions: active against one or more sodium channels; assay and NaV subtype not specified for Table 3; read-out: IC50 Binned Activity Data. The text has this: Assays for Detecting and Measuring NaV Inhibition Properties of Compound E-VIPR Optical Membrane Potential Assay Method with Electrical Stimulation
Chain of human NaV subtype, like NaV 1.7 (Q15858 whole entry): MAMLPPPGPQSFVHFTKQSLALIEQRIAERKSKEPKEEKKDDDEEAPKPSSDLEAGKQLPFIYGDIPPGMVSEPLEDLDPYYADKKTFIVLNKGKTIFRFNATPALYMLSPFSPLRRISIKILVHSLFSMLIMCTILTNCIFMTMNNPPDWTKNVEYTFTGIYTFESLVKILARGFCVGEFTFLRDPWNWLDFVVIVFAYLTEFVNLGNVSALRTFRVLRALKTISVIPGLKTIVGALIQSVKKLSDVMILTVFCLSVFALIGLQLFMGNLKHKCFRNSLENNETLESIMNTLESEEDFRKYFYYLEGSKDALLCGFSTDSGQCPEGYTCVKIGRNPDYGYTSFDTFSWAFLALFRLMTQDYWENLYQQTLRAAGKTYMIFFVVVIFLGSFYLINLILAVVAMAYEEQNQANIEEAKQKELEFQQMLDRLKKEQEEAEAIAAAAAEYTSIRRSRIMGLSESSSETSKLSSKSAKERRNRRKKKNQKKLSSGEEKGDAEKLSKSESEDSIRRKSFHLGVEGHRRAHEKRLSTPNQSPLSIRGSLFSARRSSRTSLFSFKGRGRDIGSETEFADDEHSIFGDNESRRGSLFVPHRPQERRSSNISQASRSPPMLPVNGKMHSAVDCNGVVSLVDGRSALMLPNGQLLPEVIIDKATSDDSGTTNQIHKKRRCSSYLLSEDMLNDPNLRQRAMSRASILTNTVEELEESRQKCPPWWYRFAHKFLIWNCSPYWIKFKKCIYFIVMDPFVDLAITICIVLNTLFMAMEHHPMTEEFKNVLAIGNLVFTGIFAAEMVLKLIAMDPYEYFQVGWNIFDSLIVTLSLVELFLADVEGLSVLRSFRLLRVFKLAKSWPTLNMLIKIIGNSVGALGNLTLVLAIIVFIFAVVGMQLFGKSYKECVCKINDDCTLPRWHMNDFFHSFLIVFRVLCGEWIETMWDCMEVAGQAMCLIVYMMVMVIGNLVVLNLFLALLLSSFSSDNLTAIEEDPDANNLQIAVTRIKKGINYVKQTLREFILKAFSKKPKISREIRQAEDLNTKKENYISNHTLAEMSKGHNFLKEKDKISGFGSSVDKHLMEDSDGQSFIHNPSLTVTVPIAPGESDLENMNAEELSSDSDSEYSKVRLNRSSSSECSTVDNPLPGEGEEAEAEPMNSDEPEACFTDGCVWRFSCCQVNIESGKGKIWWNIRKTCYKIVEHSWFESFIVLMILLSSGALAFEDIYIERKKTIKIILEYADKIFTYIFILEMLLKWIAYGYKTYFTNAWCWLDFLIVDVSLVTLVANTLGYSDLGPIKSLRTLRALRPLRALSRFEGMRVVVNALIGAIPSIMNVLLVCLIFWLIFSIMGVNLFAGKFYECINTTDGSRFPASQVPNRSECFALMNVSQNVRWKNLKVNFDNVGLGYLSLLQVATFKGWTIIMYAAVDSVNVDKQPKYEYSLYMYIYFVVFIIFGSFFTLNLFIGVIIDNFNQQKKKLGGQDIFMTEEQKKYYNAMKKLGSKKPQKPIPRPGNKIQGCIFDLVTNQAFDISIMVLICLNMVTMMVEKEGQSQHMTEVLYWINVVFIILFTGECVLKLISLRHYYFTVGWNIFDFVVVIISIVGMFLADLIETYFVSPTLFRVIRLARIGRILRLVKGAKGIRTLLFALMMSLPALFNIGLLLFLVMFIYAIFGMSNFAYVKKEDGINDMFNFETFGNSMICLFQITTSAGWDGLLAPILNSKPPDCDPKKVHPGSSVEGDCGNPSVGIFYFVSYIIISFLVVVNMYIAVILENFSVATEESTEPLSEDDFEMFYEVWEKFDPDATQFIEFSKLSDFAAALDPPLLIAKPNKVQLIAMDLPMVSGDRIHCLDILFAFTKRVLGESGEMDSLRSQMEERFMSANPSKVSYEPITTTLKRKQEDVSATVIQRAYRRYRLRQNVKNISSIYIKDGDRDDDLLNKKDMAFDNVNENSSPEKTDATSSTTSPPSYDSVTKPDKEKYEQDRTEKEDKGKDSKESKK
Sodium channels are voltage-dependent proteins that can be activated by inducing membrane voltage changes by applying electric fields. The electrical stimulation instrument and methods of use are described in Ion Channel Assay Methods PCT/US01/21652, herein incorporated by reference and are referred to as E-VIPR. The instrument comprises a microtiter plate handler, an optical system for exciting the coumarin dye while simultaneously recording the coumarin and oxonol emissions, a waveform generator, a current- or voltage-controlled amplifier, and a device for inserting electrodes in well. Under integrated computer control, this instrument passes user-programmed electrical stimulus protocols to cells within the wells of the microtiter plate.
24 hours before the assay on E-VIPR, HEK cells expressing human NaV subtype, like NaV 1.7, are seeded in 384-well poly-lysine coated plates at 15,000-20,000 cells per well. Other subtypes are performed in an analogous mode in a cell line expressing the NaV of interest. HEK cells are grown in media (exact composition is specific to each cell type and NaV subtype) supplemented with 10% FBS (Fetal Bovine Serum, qualified; GibcoBRL #16140-071) and 1% Pen-Strep (Penicillin-Streptomycin; GibcoBRL #15140-122). Cells are grown in vented cap flasks, in 90% humidity and 10% CO2, to 100% confluence. They are usually split by trypsinization 1:10 or 1:20, depending on scheduling needs, and grown for 2-3 days before the next split.
100 mg/mL Pluronic F-127 (Sigma #P2443), in dry DMSO
Compound Plates: 384-well round bottom plate, e.g. Corning 384-well Polypropylene Round Bottom #3656
Cell Plates: 384-well tissue culture treated plate, e.g. Greiner #781091-1B
Bath1 buffer. Glucose 10 mM (1.8 g/L), Magnesium Chloride (Anhydrous), 1 mM (0.095 g/L), Calcium Chloride, 2 mM (0.222 g/L), HEPES 10 mM (2.38 g/L), Potassium Chloride, 4.5 mM (0.335 g/L), Sodium Chloride 160 mM (9.35 g/L).
Hexyl Dye Solution: Bath1 Buffer+0.5% β-cyclodextrin (make this prior to use, Sigma #C4767), 8 μM CC2-DMPE+2.5 μM DiSBAC6(3). To make the solution Add volume of 10% Pluronic F127 stock equal to volumes of CC2-DMPE+DiSBAC6(3). The order of preparation is first mix Pluronic and CC2-DMPE, then add DiSBAC6(3) while vortexing, then add Bath1+β-Cyclodextrin.
1) Pre-spot compounds (in neat DMSO) into compound plates. Vehicle control (neat DMSO), the positive control (20 mM DMSO stock tetracaine, 125 μM final in assay) and test compounds are added to each well at 160× desired final concentration in neat DMSO. Final compound plate volume will be 80 μL (80-fold intermediate dilution from 1 μL DMSO spot; 160-fold final dilution after transfer to cell plate). Final DMSO concentration for all wells in assay is 0.625%.
2) Prepare Hexyl Dye Solution.
3) Prepare cell plates. On the day of the assay, medium is aspirated and cells are washed three times with 100 μL of Bath1 Solution, maintaining 25 μL residual volume in each well.
4) Dispense 25 μL per well of Hexyl Dye Solution into cell plates. Incubate for 20-35 minutes at room temp or ambient conditions.
5) Dispense 80 μL per well of Bath1 into compound plates. Acid Yellow-17 (1 mM) is added and Potassium Chloride can be altered from 4.5 to 20 mM depending on the NaV subtype and assay sensitivity.
6) Wash cell plates three times with 100 μL per well of Bath1, leaving 25 μL of residual volume. Then transfer 25 uL per well from Compound Plates to Cell Plates. Incubate for 20-35 minutes at room temp/ambient condition
7) Read Plate on E-VIPR. Use the current-controlled amplifier to deliver stimulation wave pulses for typically 9 seconds and a scan rate of 400 Hz. A pre-stimulus recording is performed for 0.5 seconds to obtain the un-stimulated intensities baseline. […]
Take `CC(C)Oc1ccc(C(=O)N2CCC3(CC2)CC(OC(C)C)c2ccccc2S3(=O)=O)cc1` (stereo not shown) [Compound 99]: the IC50 is not above 2 µM. In the case of `CCOC1Cc2ccccc2OC12CCN(C(=O)c1ccc(OC(C)C)c(OC)c1)CC2` (stereo not shown) [Compound 100], the IC50 was not above 2 µM.

For `Cc1nc(C(=O)N2CCC3(CC2)C[C@@H](OC(C)C)c2cc(F)ccc2O3)ccc1S(=O)(=O)C(C)C` [Compound 101], the IC50 is more than 5 µM.

Regarding `CC(C)O[C@@H]1CC2(CCN(C(=O)c3ccc(N4CCCC4)cn3)CC2)Oc2ccccc21` [Compound 102], the IC50 is more than 5 µM. On to `CC(C)O[C@@H]1CC2(CCN(C(=O)c3ccc(N4CC(S(C)(=O)=O)C4)cn3)CC2)Oc2ccc(F)cc21` [Compound 103], for which the IC50 was more than 5 µM. For `Cc1cc(C(=O)N2CCC3(CC2)CC(OC(C)C)c2nn(C)cc2O3)ccc1OC(C)C` (stereo not shown) [Compound 104] the value was not above 2 µM; for `COc1cc(C(=O)N2CCC3(CC2)CC(OCc2cccnc2)c2ccccc2O3)ccc1OC(C)C` (stereo not shown) [Compound 105], not above 2 µM; for `COc1cc(C(=O)N2CCC3(CC2)C[C@H](OC(C)C)c2ccccc2O3)ccc1OCCCO` [Compound 106], not above 2 µM.

For the compound `Cc1nc(C(=O)N2CCC3(CC2)C[C@H](OC(C)C)c2ccccc2O3)ccc1OC(C)C` [Compound 107], the IC50 is not above 2 µM. With `CC(C)OCC1CC2(CCN(C(=O)c3ccc(OC(C)C)c(CO)c3)CC2)Oc2ccccc21` (stereo not shown) [Compound 108], the IC50 was not above 2 µM.

`COc1cc(C(=O)N2CCC3(CC2)CC(OC)c2ccccc2S3(=O)=O)ccc1OC(C)C` (stereo not shown) [Compound 109]: the half-maximal inhibitory concentration (IC50) was more than 5 µM. Consider `CC(C)O[C@@H]1CC2(CCN(C(=O)c3ccc(S(=O)(=O)C(F)F)cc3)CC2)Oc2ccc(F)cc21` [Compound 110], for which the IC50 was not above 2 µM. For `CCc1ccc(C(=O)N2CCC3(CC2)C[C@@H](OC(C)C)c2cc(F)ccc2O3)nc1` [Compound 111] the value was more than 5 µM.

For the compound `CC(C)Oc1ccc(C(=O)N2CCC3(CC2)C[C@@H](OC(C)C)c2cc(F)ccc2O3)cc1F` [Compound 112], the IC50 was not above 2 µM. Consider `COc1ccccc1C(=O)N1CCC2(CC1)CC(OC)c1ccccc1O2` (stereo not shown) [Compound 113], for which the IC50 was not above 2 µM. For `COc1cc(C(=O)N2CCC3(CC2)C[C@@H](OC(C)C)c2ccccc2O3)ccc1OC(C)C` [Compound 114] the value was not above 2 µM. In the case of `CC(C)O[C@H]1CC2(CCN(C(=O)c3ccc(C(C)(C)O)cc3)CC2)Oc2ccccc21` [Compound 115], the IC50 lay within 2 to 5 µM. The same measure for `COc1cc(C(=O)N2CCC3(CC2)C[C@@H](OC(C)C)c2ccccc2O3)ccc1OCCCO` [Compound 116]: 2 to 5 µM; for `COc1cc(C(=O)N2CCC3(CC2)C[C@@H](OC(C)C)c2cc(F)ccc2O3)ccc1OCCO` [Compound 117]: not above 2 µM. On to `CC(C)OC1CC2(CCN(C(=O)c3ccc(C(C)(C)O)c(F)c3)CC2)Oc2cc(F)ccc21` (stereo not shown) [Compound 118], for which the IC50 is not above 2 µM. The same measure for `CC(C)OC1CC2(CCN(C(=O)c3ccc(S(=O)(=O)C(C)C)cc3)CC2)Oc2ccccc21` (stereo not shown) [Compound 119]: not above 2 µM; for `COc1cc(C(=O)N2CCC3(CC2)C[C@@H](OC(C)C)c2cc(F)ccc2O3)ccc1C(C)(C)CO` [Compound 120]: not above 2 µM; for `CCO[C@@H]1CC2(CCN(C(=O)c3ccc(S(=O)(=O)C(F)F)cc3)CC2)Oc2ccc(F)cc21` [Compound 121]: more than 5 µM. As for `Cc1cc(C(=O)N2CCC3(CC2)C[C@@H](O)c2cc(F)ccc2O3)ccc1OC(C)C` [Compound 122], the IC50 was not above 2 µM. The same measure for `CC(C)O[C@H]1CC2(CCN(C(=O)c3ccc4c(cnn4C)c3)CC2)Oc2ccccc21` [Compound 123]: 2 to 5 µM; for `CC(C)Oc1ccc(C(=O)N2CCC3(CC2)C[C@@H](OC(C)C)c2ccccc2O3)cn1` [Compound 124]: more than 5 µM. The same measure for `CCOc1ccc(C(=O)N2CCC3(CC2)C[C@@H](OC(C)C)c2ccccc2O3)cc1F` [Compound 125]: not above 2 µM; for `CCc1ccc(C(=O)N2CCC3(CC2)C[C@@H](OC(C)C)c2cc(F)ccc2O3)cc1OC` [Compound 126]: not above 2 µM. On to `COc1cc(C(=O)N2CCC3(CC2)CC(OC2CC2)c2ccccc2O3)ccc1OC(C)C` (stereo not shown) [Compound 127], for which the IC50 was not above 2 µM. In the case of `COc1cc(C(=O)N2CCC3(CC2)CC(OC(C)(C)C)c2ccccc2O3)ccc1OC(C)C` (stereo not shown) [Compound 128], the IC50 was not above 2 µM. For `CCOc1ccc(C(=O)N2CCC3(CC2)C[C@@H](OC(C)C)c2cc(F)ccc2O3)nc1` [Compound 129], the IC50 is 2 to 5 µM. The same measure for `CC(C)O[C@@H]1CC2(CCN(C(=O)c3ccc(C(C)(C)O)c(F)c3)CC2)Oc2cc(F)ccc21` [Compound 130]: 2 to 5 µM; for `CC(C)O[C@@H]1CC2(CCN(C(=O)c3ccccc3OC(F)(F)F)CC2)Oc2ccc(F)cc21` [Compound 131]: not above 2 µM. In the case of `CC1CCCN(c2ccc(C(=O)N3CCC4(CC3)C[C@@H](OC(C)C)c3cc(F)ccc3O4)nc2)C1` (stereo partly shown) [Compound 132], the concentration for half-maximal inhibition (IC50) was not above 2 µM. The same measure for `COc1ccc(C(=O)N2CCC3(CC2)C[C@H](OC(C)C)c2ccccc2O3)cc1C` [Compound 133]: not above 2 µM; for `Cc1cc(C(=O)N2CCC3(CC2)C[C@@H](O)c2cc(F)ccc2O3)ccc1C(C)(C)O` [Compound 134]: not above 2 µM; for `COCOC1Cc2ccccc2OC12CCN(C(=O)c1ccc(OC(C)C)c(OC)c1)CC2` (stereo not shown) [Compound 135]: not above 2 µM. The same measure for `COc1cc(C(=O)N2CCC3(CC2)C[C@@H](OC(C)C)c2ccccc2O3)ccc1O` [Compound 136]: not above 2 µM; for `CC(C)O[C@@H]1CC2(CCN(C(=O)c3ccc4c(cnn4C)c3)CC2)Oc2ccccc21` [Compound 137]: not above 2 µM; for `Cc1cc(C(=O)N2CCC3(CC2)CC(O)c2c(F)cccc2O3)ccc1OC(C)C` (stereo not shown) [Compound 138]: not above 2 µM.

In the case of `CC(C)Oc1ccc(C(=O)N2CCC3(CC2)C[C@@H](OC(C)C)c2cc(F)ccc2O3)nc1` [Compound 139], the IC50 is not above 2 µM. The same measure for `CC(C)Oc1ccc(C(=O)N2CCC3(CC2)C[C@@H](OC(C)C)c2ccccc2O3)cc1F` [Compound 140]: not above 2 µM; for `Cc1cc(C(=O)N2CCC3(CC2)CC(OC(C)C)c2ccccc2O3)ccc1OC(C)C` (stereo not shown) [Compound 141]: not above 2 µM. As to `COc1cc(C(=O)N2CCC3(CC2)CC(OC)c2ccccc2O3)ccc1OC(C)C` (stereo not shown) [Compound 142], the IC50 was not above 2 µM. For `COc1cc(C(=O)N2CCC3(CC2)CC(Cn2cccn2)c2ccccc2O3)ccc1OC(C)C` (stereo not shown) [Compound 143] the value was not above 2 µM; for `COc1cc(O)ccc1C(=O)N1CCC2(CC1)C[C@H](OC(C)C)c1ccccc1O2` [Compound 144], not above 2 µM. The same measure for `COc1cc(C(=O)N2CCC3(CC2)CC(Oc2cccnc2)c2ccccc2O3)ccc1OC(C)C` (stereo not shown) [Compound 145]: not above 2 µM. Take `COc1cc(C(=O)N2CCC3(CC2)C[C@@H](OC(C)C)c2cc(F)ccc2O3)ccc1OC(C)C` [Compound 146]: the IC50 was not above 2 µM. The same measure for `CC(C)CS(=O)(=O)c1ccc(C(=O)N2CCC3(CC2)C[C@@H](OC(C)C)c2cc(F)ccc2O3)cc1` [Compound 147]: not above 2 µM.

The IC50 is the concentration needed to halve the response being measured.
